Measurements published in paper PMC7459852, “Identification of 6-(piperazin-1-yl)-1,3,5-triazine as a chemical scaffold with broad anti-schistosomal activities” (Wellcome Open Research, 2020).
Where two headings read alike, the source gives them in different places.

Tests used:
Format in all cases: cell-based, Schistosoma mansoni
[1] = tested on: S. mansoni schistosomula; assay: Schistosomula screens (Roboworm, phenotype and motility); settings: 72 h
Method: Anthelmintic activity on the schistosomula stage of S. mansoni was evaluated using Roboworm, an integrated high-throughput, high content image analysis platform originally developed by Paveley et al. and subsequently used by our research group as previously described, [28], [50], [51]. Alternatively, the computer application Worminator can be used to assess motion of microscopic parasites such as the schistosomula stage of S. mansoni. Compounds (as single concentration or two-fold titrations) were prepared for screening in a 384-well plate (PerkinElmer, MA, USA), where solutions (1.6 mM, 0.5 μl) were wet stamped using the Biomek NX ^P liquid handling platform into Basch medium (20 μl). Negative (0.625% DMSO) and positive (Auranofin - AUR - at 10 µM final concentration in 0.625% DMSO) control wells were similarly prepared. Mechanically transformed schistosomula (about 120 parasites in 60 μl of Basch medium) were distributed into each treated well using a WellMate (Thermo Scientific, Loughborough, UK). Schistosomula/compound co-cultures were then incubated at 37°C for 72 h in a humidified atmosphere containing 5% CO 2. At 72 h, parasite/compound co-cultures were resuspended and tissue culture plates were imaged under the same conditions (37°C for 72 h in a humidified atmosphere containing 5% CO 2) using an ImageXpressXL high content imager (Molecular Devices, UK) with subsequent images processed for phenotype and motility as previously reported. Plate analysis returned a phenotype and motility score for each well and any scores below -0.15 and -0.35 (defined threshold anti-schistosomula values for phenotype and motility scores, respectively) defined a condition displaying anti-schistosomula activity. Compound screens were assessed based on the Z´ values (derived from the means and standard deviations of positive and negative controls) and those equal to or above 0.3 for both phenotype and motility were considered successful.
Phenotype and motility scores of each titration were used to generate dose response curves in GraphPad Prism 7.02 based on the corrected average score of the three replicates for each data point.

[2] = tested on: S. mansoni adult worms; assay: Adult worm screens (WormassayGP2 motility, egg count); settings: 72 h
Method: For compound screening, adult worms (three worm pairs/well for compound 7 and the hit compounds of set two; one worm pair/well for the hit compounds of set three) were transferred into wells of a 48-well tissue culture plate containing 1 ml of adult worm media. Adult worms were treated with compounds previously identified as hits at 10 µM on 72 h cultured schistosomula. Worms were dosed with an appropriate volume of 10 mM stock solution of each compound (in DMSO) to have a concentration range of 50 – 6.25 µM (up to 0.5% DMSO, primary screen of compound 7). Secondary screens were performed on the structural analogues of compound 7 (only the schistosomula hits at 10 µM) at a single concentration (12.5 µM) and compared to the same concentration of the parental compound (included in the screen as reference). DMSO (0.5%) and praziquantel (10 µM in 0.5% DMSO) were also included as negative and positive control treatments (both primary and secondary screens). Treated adult worms were incubated for 72 h in a humidified environment at 5% CO 2 at 37°C. Parasite motility after drug treatment was assessed by a digital image processing-based system (WormassayGP2, see Software availability) modified after Wormassay, [56], [57]. Egg production was assessed according to the methodology described by Edwards et al..

[3] = tested on: S. mansoni miracidia; assay: Miracidia to sporocyst transformation screens; settings: 48 h
Method: Following hatching of S. mansoni eggs, miracidia were incubated on ice for 15 min and then centrifuged at 700 x g for 5 min at 4°C. The miracidia pellet was then re-suspended in 5 ml of Chernin's balanced salt solution (CBSS), subjected to pelleting and two subsequent washes (all at 700 x g for 5 min at 4°C). Afterwards, the supernatant was carefully removed with a serological pipette and the miracidia-enriched pellet was resuspended with CBSS supplemented with 1 mg/ml each of glucose and trehalose and 500 µl of Penicillin-Streptomycin (containing 10,000 units penicillin and 10 mg streptomycin/ml, P4333, Sigma-Aldrich). In preparation for the screens, CBSS (250 µl) was aliquoted to each well of a 24-well plate followed by addition of each compound in DMSO (1 mM concentration in 1% DMSO) or DMSO alone (1%, negative control). Next, approximately 20-25 miracidia (in 250 µl of CBSS) were aliquoted to each well. […] Both preliminary and secondary screens were performed in duplicate on two separate occasions (two independent biological replicates). Miracidia were incubated for 48 h at 26°C before being evaluated using an Olympus inverted light microscope for morphological and behavioural changes differing from the control wells. Dead, partially transformed and fully transformed miracidia were enumerated in the DMSO control and the assay plates as previously described, [23], [59]. […] Absence of ciliated plates attached to the surface of the parasite and formation of sporocyst tegument defined the so-called “fully transformed” parasites.

[4] = tested on: S. mansoni adult worms; assay: Scanning electron microscopy of compound damage on adult worms; settings: 12.50 µM (sub-lethal), 72 h
Method: Following 72 h of drug treatment, the cultured S. mansoni adult worms were collected, separated by sex and relaxed with tricaine anaesthetic solution (0.25% w/v of ethyl 3-aminobenzoate methane sulfonate - Tricaine, E10521, Sigma Aldrich - in DMEM). The samples were incubated by gently rocking for 15 min or until parasites relaxed and separated. The parasites were then killed by incubation in a solution of […] magnesium chloride (MgCl 2) for 1 min. Afterwards, adult schistosome worms were briefly washed with pre-warmed 1X PBS and then fixed using appropriate solutions for analysis by scanning electron microscopy (SEM) as previously described in literature, [61], [62].
Post fixation, adult schistosomes were stored at 4°C until washing with 0.1 M sodium cacodylate was performed (2 x 30 min each). The worms were then stained with 1% v/v osmium tetroxide water solution (stored at -20°C and pre-warmed at room temperature prior to use) for 2 h and then washed with 0.1 M sodium cacodylate for 30 min. Following staining, worms were dehydrated with an aqueous alcohol series (30, 50, 70, 95 and 100% ethanol in ultra-pure water) by agitating gently on a rocker for 30 min per solution. At the final step, the samples were left in 100% ethanol overnight before being dried with hexamethyldisilazane critical drying point agent (AGR1228, Agar Scientific, Stansted, UK) for at least 3 h. […]

EC50 ([1]; Schistosoma mansoni, average of phenotype and motility metrics, read-out: Schistosomula EC50 Average): 5.54 µM
EC50 ([1]; Schistosoma mansoni, dose response titrations (10 - 0.625 µM), read-out: Schistosomula EC50 Motility): 5.03 µM
EC50 ([1]; Schistosoma mansoni, dose response titrations (10 - 0.625 µM), read-out: Schistosomula EC50 Phenotype): 5.65 µM
EC50 ([1]; average of phenotype and motility metrics, read-out: Schistosomula EC50 Average): 5.34 µM
SMILES: c1ccc(Nc2nc(N3CCCC3)nc(N3CCNCC3)n2)cc1 [Compound 7]
anti-schistosomula activity (hit on phenotype and motility) ([1]; 10 µM): remaining active
anti-schistosomula activity (hit on phenotype and motility) ([1]; 50 µM): showed anti-schistosomal activity
schistosomula phenotype induced ([1]; both 50 and 10 µM): swollen with some individuals additionally displaying posterior end compression
effect on adult worms (motility) ([2]; 12.50 and 6.25 µM): worm recovery began at 12.50 µM and remained at 6.25 µM
effect on adult worms (motility) ([2]; 50 and 25 µM): lethal effect
egg production (worm fecundity) ([2]; titration 50 - 6.25 µM, effect up to and including 12.50 µM): particularly effective in inhibiting worm fecundity
inhibition of miracidia transformation ([3]; 5, 2 and 0.5 µM): 20–25%
effect on miracidia ([3]; 50 and 25 µM): completely lethal
inhibition at 10 µM ([3]; Schistosoma mansoni, 10 µM): 45%
morphological changes of adult worms by SEM [4]: partial loss of tubercles and spines as well as tegument erosion
